A short description of data set [1]: Aqueous solubility of compound at pH 7.4. The data set is classed as physicochemical.
Another data set deals with CHO. Put plainly: Cytotoxicity against CHO cells assessed as reduction in cell viability by MTT assay. Format: cell-based. To be noted: Cricetulus griseus. In general terms: Formazan colour is commonly taken as a measure of viable cells.
The test system of data set [2] is Mycobacterium tuberculosis. The data set is classed as functional. To be noted: H37Rv, 168 h, time 7 day.
Data set [3] can be described thus: Protein binding in human plasma assessed as unbound fraction at 5 uM incubated for 1 hr at 37 degreeC and measured after 4 hrs by ultracentrifugation based LC-MS/MS analysis. To be noted: 5 h. The data set is classed as ADME, cell-free.
Data set [4] is described as follows: Kinetic solubility of compound at 200 uM at pH 7.4 measured after 20 hrs by HPLC-DAD analysis. The data set is classed as physicochemical. To be noted: buffer, pH 7.4, 20 h.
For data set [5], the system named is Mycobacterium tuberculosis. Put plainly: Antimycobacterial activity against mmpL3 gene silenced Mycobacterium tuberculosis H37Rv assessed as inhibition of bacterial growth grown under middlebrook 7H9 medium incubated for 7 days by alamar blue broth microdilution method. The data set is classed as functional, organism-based. To be noted: time 7.0 day.
The test system of data set [6] is Mycobacterium tuberculosis. Put plainly: Antimycobacterial activity against wild-type Mycobacterium tuberculosis H37Rv assessed as inhibition of bacterial growth grown under middlebrook 7H9 medium incubated for 7 days by alamar blue broth microdilution method. Format: functional. To be noted: 168 h, time 7 day.
In another data set the test system is Vero. Put plainly: Cytotoxicity against African green monkey Vero cells assessed as reduction in cell viability by MTT assay. Format: cell-based. To be noted: Chlorocebus sabaeus.
Data set [7] concerns Mycobacterium tuberculosis. Put plainly: Bactericidal activity against Mycobacterium tuberculosis H37Rv assessed as reduction in CFU grown under middlebrook 7H9/OADC-Glycerol-Tween80 medium at 1 to 2 times MIC incubated for 7 days. Format: functional. To be noted: time 7 day.

By solubility is commonly meant how much of the substance goes into solution per volume. For orientation: IC50 means the concentration at which inhibition is half-maximal. As usually defined, the MIC is the lowest concentration that inhibits growth of the organism.

Converted amounts (≈) assume the structure as drawn. The source made the active and inactive calls. The rule behind the calls is not given here. Bounds are passed on as bounds.

In the case of `CCc1cc(C)nn1-c1nc(C(F)(F)F)cc(=O)[nH]1`, the solubility in data set [1] (aqueous, read-out: solubility) was 200 µM (≈ 54.4 µg/mL). Also, the IC50 in the data set with CHO stood at 108 µM. For the same molecule, the MIC in [2] stood at 12 µM (≈ 3.27 µg/mL).

As for `Nc1cc(C2CC2)nn1-c1nc(C(F)(F)F)cc(=O)[nH]1`, the solubility in data set [1] (buffer) worked out at 10 µM (≈ 2.85 µg/mL). The IC50 in the data set with CHO came out at 24 µM. Further, in [2], inhibition of growth (MIC) required 25 µM (≈ 7.13 µg/mL).

Take `Cc1nn(-c2nc(C(F)(F)F)cc(=O)[nH]2)c(C)c1N1CCOCC1`: the solubility in data set [1] (buffer) worked out at 160 µM (≈ 54.9 µg/mL). For the same molecule, the IC50 in the data set on CHO was more than 50 µM. Besides, the Fu in data set [3] is reported as 0.03. This molecule gave an MIC in [2] of 6.25 µM (≈ 2.15 µg/mL). Also, the Kinetic_solubility in data set [4] turned out to be 160 µM.

For `COCCNc1cc(C)nn1-c1nc(C(F)(F)F)cc(=O)[nH]1`, the solubility in data set [1] (aqueous, read-out: solubility) worked out at 200 µM (≈ 63.5 µg/mL). Also, the IC50 in the data set with CHO amounted to 17 µM. Also, the outcome in [5] was Active. Further, the MIC in [6] turned out to be 1.2 µM (≈ 0.381 µg/mL); in [2], 2 µM (≈ 0.635 µg/mL).

In data set [1] (buffer), `CNC(=O)c1ccc(-c2cc(=O)[nH]c(-n3nc(C)cc3C)n2)cc1` displayed a solubility of 70 µM (≈ 22.6 µg/mL). The IC50 in the data set with CHO was more than 50 µM. This molecule came in with an MIC in data set [2] of more than 50 µM.

For the molecule `Cc1cc(C)n(-c2nc(-c3ccc(N4CCOCC4)cc3)cc(=O)[nH]2)n1`, the solubility in [1] (buffer) turned out to be 40 µM (≈ 14.1 µg/mL). In [2], this molecule returned an MIC of more than 125 µM.

Molecule `O=c1cc(-c2ccccc2)nc(-n2cccn2)[nH]1` showed a solubility in [1] (buffer) of 190 µM (≈ 45.3 µg/mL). The IC50 in the data set on CHO was more than 50 µM. Besides, the MIC in data set [2] was 50 µM (≈ 11.9 µg/mL).

For the molecule `Cc1cc(Nc2ccc(N3CCOCC3)cn2)n(-c2nc(C(F)(F)F)cc(=O)[nH]2)n1`, the solubility in [1] (buffer) was determined as 180 µM (≈ 75.8 µg/mL). Besides, in the data set with CHO, the IC50 was 1.3 µM. Moreover, it took 2.3 µM (≈ 0.969 µg/mL) to inhibit growth in [2] (MIC).

For the molecule `Cc1cc(O)nc(-n2nc(C)cc2C)n1`, the solubility in data set [1] (buffer) was found to be 180 µM (≈ 36.8 µg/mL). In data set [2], this molecule displayed an MIC of 30 µM (≈ 6.13 µg/mL). For the same molecule, the IC50 in the data set with Vero was 325 µM.

As to `Cc1cc(CN(C)C)nn1-c1nc(C(F)(F)F)cc(=O)[nH]1`, the solubility in data set [1] (aqueous, read-out: solubility) came to 200 µM (≈ 60.3 µg/mL). The MIC in data set [2] is more than 50 µM.

For the molecule `Cc1cc(=O)n(-c2nc(-c3ccccc3)cc(=O)[nH]2)[nH]1`, in data set [1] (aqueous, read-out: solubility), the solubility turned out to be 190 µM (≈ 51 µg/mL). This molecule also came in with an MIC in [2] of more than 125 µM.

Molecule `Cc1cc(C)n(-c2nc(C)c(-c3ccccc3)c(=O)[nH]2)n1` gave a solubility in [1] (buffer) of 190 µM (≈ 53.3 µg/mL). For the same molecule, the IC50 in the data set on CHO was 9 µM. Also, the lowest concentration to inhibit growth in [2] (MIC) was 9 µM (≈ 2.52 µg/mL).

`Cc1nc(C)n(-c2nc(-c3ccccc3)cc(=O)[nH]2)n1` came in with a solubility in data set [1] (buffer) of 130 µM (≈ 34.7 µg/mL). Also, the IC50 in the data set with CHO is more than 50 µM. The same molecule returned a minimal inhibitory concentration (MIC) in [2] of more than 125 µM.

Consider `CO[C@H]1/C=C/O[C@@]2(C)Oc3c(C)c(O)c4c(O)c(c(/C=N/N5CCN(C)CC5)c(O)c4c3C2=O)NC(=O)/C(C)=C\C=C\[C@H](C)[C@H](O)[C@@H](C)[C@@H](O)[C@@H](C)[C@H](OC(C)=O)[C@@H]1C` [RIFAMPIN], for which the Activity in data set [7] was 2 log10CFU.

Regarding `Cc1cc(NCCN(C)C)n(-c2nc(C(F)(F)F)cc(=O)[nH]2)n1`, in data set [1] (aqueous, read-out: solubility), the solubility turned out to be 200 µM (≈ 66.1 µg/mL). For the same molecule, the MIC in data set [2] amounted to 58 µM (≈ 19.2 µg/mL).

In data set [1] (buffer), `CCNc1cc(C)nn1-c1nc(C(F)(F)F)cc(=O)[nH]1` gave a solubility of 85 µM (≈ 24.4 µg/mL). In the data set with CHO, the IC50 was 8 µM. In addition, the MIC in data set [2] was found to be 6.25 µM (≈ 1.8 µg/mL).

In the case of `Cc1cc(C)n(-c2nc(-c3ccc(F)cc3)c(C(=O)O)c(=O)[nH]2)n1`, the solubility in data set [1] (buffer) amounted to 190 µM (≈ 62.4 µg/mL). The IC50 in the data set with CHO is more than 50 µM. This molecule also came in with an MIC in [2] of more than 50 µM.

Turning to `Cc1cc(C)n(-c2cc(-c3ccccc3)cc(=O)n2C)n1`, in [1] (aqueous, read-out: solubility), the solubility was 185 µM (≈ 51.7 µg/mL). In the data set on CHO, the IC50 is more than 50 µM. Besides, the MIC in data set [2] was more than 50 µM.

In turn, `Cc1cc(C)n(-c2nc(-c3ccncc3)cc(=O)[nH]2)n1` gave a solubility in [1] (buffer) of 180 µM (≈ 48.1 µg/mL). The IC50 with CHO was more than 50 µM. The MIC in [2] came to 9 µM (≈ 2.41 µg/mL).

For `Cc1cc(C)n(-c2nc(-c3ccccc3)cc(=O)n2C)n1`, the solubility in data set [1] (aqueous, read-out: solubility) came to 200 µM (≈ 56.1 µg/mL). The minimum inhibitory concentration (MIC) in data set [2] is more than 50 µM. In addition, the IC50 in the data set on Vero was 357 µM.

The molecule `Cc1cc(C)n(-c2nc(-c3ccc(F)cc3)cc(=O)[nH]2)n1` showed a solubility in data set [1] (buffer) of 35 µM (≈ 9.95 µg/mL). Moreover, in the data set with CHO, the IC50 is 4 µM. The molecule further had an MIC in data set [2] of 1.2 µM (≈ 0.341 µg/mL).

As to `Cc1cc(C)n(-c2cc(-c3ccccc3)nc(=O)[nH]2)n1`, the solubility in data set [1] (buffer) turned out to be 30 µM (≈ 7.99 µg/mL). For the same molecule, the IC50 in the data set on CHO was found to be 10 µM. Moreover, it took 2 µM (≈ 0.533 µg/mL) to inhibit growth in data set [2] (MIC).

As for `Cc1cc(-c2ccccc2)n(-c2nc(C(F)(F)F)cc(=O)[nH]2)n1`, in data set [1] (aqueous, read-out: solubility), the solubility is 200 µM (≈ 64.1 µg/mL). The IC50 with CHO is more than 50 µM. In [2], this molecule came in with an MIC of 25 µM (≈ 8.01 µg/mL).

With `Cc1cc(NCCO)n(-c2nc(C(F)(F)F)cc(=O)[nH]2)n1`, the solubility in [1] (aqueous, read-out: solubility) amounted to 200 µM (≈ 60.6 µg/mL). For the same molecule, in data set [2], the MIC amounted to 37 µM (≈ 11.2 µg/mL).

Take `Cc1cc(N)n(-c2nc(C(F)(F)F)cc(=O)[nH]2)n1`: in data set [1] (aqueous, read-out: solubility), the solubility was found to be 200 µM (≈ 51.8 µg/mL). Moreover, the IC50 with CHO amounted to 120 µM. This molecule came in with an MIC in data set [2] of 20 µM (≈ 5.18 µg/mL).

These data come from ChEMBL document CHEMBL4706648, “Antitubercular 2-Pyrazolylpyrimidinones: Structure-Activity Relationship and Mode-of-Action Studies” (J Med Chem, 2021).
